Data set [1] has as its target T1, beta-catenin-B-cell lymphoma 9 protein complex (Homo sapiens, UniProt P35222).
T1 sequence (P35222 whole entry): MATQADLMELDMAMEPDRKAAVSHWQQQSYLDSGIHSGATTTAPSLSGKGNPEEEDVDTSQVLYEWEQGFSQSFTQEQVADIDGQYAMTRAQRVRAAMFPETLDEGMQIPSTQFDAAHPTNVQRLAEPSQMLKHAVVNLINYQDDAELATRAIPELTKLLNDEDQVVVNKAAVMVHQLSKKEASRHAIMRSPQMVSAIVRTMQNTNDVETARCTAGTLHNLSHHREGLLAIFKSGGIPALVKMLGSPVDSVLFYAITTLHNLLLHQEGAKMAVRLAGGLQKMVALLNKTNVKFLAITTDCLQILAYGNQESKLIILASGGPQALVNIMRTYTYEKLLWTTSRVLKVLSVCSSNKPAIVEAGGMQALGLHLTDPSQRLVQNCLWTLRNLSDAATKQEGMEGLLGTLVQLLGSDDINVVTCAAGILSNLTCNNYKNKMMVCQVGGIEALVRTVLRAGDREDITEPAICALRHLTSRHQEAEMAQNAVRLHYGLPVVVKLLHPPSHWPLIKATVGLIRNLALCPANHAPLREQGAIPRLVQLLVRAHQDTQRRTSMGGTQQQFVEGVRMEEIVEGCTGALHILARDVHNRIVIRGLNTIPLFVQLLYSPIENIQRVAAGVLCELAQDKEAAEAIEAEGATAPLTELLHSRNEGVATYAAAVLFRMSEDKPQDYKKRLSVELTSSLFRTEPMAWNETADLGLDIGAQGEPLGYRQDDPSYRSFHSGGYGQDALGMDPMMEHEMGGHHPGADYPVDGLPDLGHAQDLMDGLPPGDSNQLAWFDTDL
T1 sequence (O00512 whole entry): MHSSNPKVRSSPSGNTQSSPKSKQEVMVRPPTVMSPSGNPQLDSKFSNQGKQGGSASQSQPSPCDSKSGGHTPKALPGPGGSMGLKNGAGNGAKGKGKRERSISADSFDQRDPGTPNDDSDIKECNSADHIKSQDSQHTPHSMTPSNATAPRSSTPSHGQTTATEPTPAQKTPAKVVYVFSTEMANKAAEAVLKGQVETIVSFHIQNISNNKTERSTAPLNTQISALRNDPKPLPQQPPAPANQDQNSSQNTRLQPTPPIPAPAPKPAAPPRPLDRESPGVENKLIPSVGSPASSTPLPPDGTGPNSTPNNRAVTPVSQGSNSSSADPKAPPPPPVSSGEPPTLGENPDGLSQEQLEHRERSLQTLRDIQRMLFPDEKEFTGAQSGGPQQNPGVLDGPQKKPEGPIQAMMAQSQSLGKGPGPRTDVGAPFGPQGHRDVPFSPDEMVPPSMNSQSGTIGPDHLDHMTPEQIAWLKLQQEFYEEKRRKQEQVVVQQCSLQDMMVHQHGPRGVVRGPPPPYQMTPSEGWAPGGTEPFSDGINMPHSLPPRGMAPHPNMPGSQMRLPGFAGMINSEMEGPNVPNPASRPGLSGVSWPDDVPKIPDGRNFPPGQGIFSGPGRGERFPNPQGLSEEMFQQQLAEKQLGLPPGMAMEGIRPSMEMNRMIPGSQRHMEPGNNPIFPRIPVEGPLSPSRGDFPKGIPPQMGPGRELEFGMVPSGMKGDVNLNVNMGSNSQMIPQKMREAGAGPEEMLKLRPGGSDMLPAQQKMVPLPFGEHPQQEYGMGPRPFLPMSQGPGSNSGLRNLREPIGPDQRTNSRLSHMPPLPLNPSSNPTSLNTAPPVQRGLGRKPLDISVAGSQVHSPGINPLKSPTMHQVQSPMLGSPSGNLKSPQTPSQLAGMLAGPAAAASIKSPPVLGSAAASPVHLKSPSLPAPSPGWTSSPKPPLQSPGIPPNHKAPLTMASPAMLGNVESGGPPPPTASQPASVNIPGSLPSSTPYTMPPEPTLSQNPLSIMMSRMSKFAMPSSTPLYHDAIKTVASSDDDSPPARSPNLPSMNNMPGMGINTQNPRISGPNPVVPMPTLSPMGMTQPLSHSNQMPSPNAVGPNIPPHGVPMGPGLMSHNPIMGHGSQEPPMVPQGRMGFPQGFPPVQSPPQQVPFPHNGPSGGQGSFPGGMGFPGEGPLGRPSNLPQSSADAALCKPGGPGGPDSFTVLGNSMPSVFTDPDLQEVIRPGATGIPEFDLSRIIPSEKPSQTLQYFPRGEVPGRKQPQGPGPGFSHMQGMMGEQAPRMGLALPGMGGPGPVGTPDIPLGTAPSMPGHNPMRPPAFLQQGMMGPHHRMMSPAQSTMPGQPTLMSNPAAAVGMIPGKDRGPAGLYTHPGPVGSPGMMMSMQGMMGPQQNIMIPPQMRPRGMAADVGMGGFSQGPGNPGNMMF
The data set is described as follows: Inhibition of beta-catenin/BCL9 protein-protein interaction in Wnt-dependent human SW480 cells assessed as reduction in Axin2 expression level by qRT-PCR assay. In kind it is cell-based.

For data set [2], the system named is CT26. The data set is described as follows: Induction of apoptosis in Wnt-dependent mouse CT26 cells assessed as early apoptotic cells at 10 uM incubated for 24 hrs by Annexin V-Alexa Fluor 647/PI staining based flow cytomtery (Rvb=18.3%). The class given is functional.
Data set [3] relates to CT26. Put plainly: Induction of apoptosis in Wnt-dependent mouse CT26 cells assessed as late apoptotic cells at 20 uM incubated for 24 hrs by Annexin V-Alexa Fluor 647/PI staining based flow cytomtery (Rvb=9.96%). The class given is functional.
Data set [4] in a line: Toxicity in BALB/c mouse xenografted with mouse CT26 cells assessed as pathological changes in lung at 30 mg/kg, ip QD in presence of anti-PD-1 antibody cotreatment at 10 mg/kg,ip BIW by hematoxylin and eosin staining based microscopic analysis. The class given is organism-based. The note with it: in vivo.
Data set [5] has as its system CT26. The data set is described as follows: Synergistic antitumor activity in mouse CT26 cells xenografted in BALB/c mouse assessed as increase in IFNG mRNA expression level in tumor at 30 mg/kg, ip QD in presence of anti-PD-1 antibody cotreatment at 10 mg/kg,ip BIW by qRT-PCR analysis. In kind it is functional, organism-based.
Data set [6] deals with HEK293. Put plainly: Induction of apoptosis in Wnt-independent human HEK293 cells assessed as viable cells at 10 uM incubated for 24 hrs by Annexin V-Alexa Fluor 647/PI staining based flow cytomtery (Rvb=70.5%). The class given is functional. To be noted: read-out: Activity.
For data set [7], the system named is CT26. The data set is described as follows: Induction of apoptosis in Wnt-dependent mouse CT26 cells assessed as early apoptotic cells at 20 uM incubated for 24 hrs by Annexin V-Alexa Fluor 647/PI staining based flow cytomtery (Rvb=18.3%). The class given is functional.
Data set [8] is described as follows: Half life in Sprague-Dawley rat at 21 mg/kg, ip and measured upto 24 hrs by LC-MS analysis. The class given is ADME, organism-based. The note with it: in vivo.
Data set [9] relates to HCT-116. Put plainly: Antiproliferative activity against Wnt-dependent human HCT-116 cells assessed as cell growth inhibition incubated for 48 hrs by CellTiter-Glo assay. In kind it is functional, cell-based.
In data set [10] the test system is HEK293. Put plainly: Induction of apoptosis in Wnt-independent human HEK293 cells assessed as necrotic cells at 10 uM incubated for 24 hrs by Annexin V-Alexa Fluor 647/PI staining based flow cytomtery (Rvb=1.82%). In kind it is functional.

Structures are written as SMILES. Activity calls are given as the source filed them. The rule behind the calls is not given here.

For the compound `O=C1[C@H](Cc2ccc(O)cc2)N2C(=O)CCN(C(=O)NCc3ccccc3)[C@H]2CN1Cc1cccc2ccccc12`, the IC50 in data set [1] was 10.6 µM.

In the case of `CC(C)c1ccc(-c2cccc(S(=O)(=O)N3CCCC(c4cccc(OC(C)(C)C(=O)NS(=O)(=O)c5ccc(C(F)(F)F)cc5)c4)C3)c2)cc1` (stereo not given), the Activity in data set [2] is listed as 24%; in [3], 52.6%; in data set [4], “Non-Toxic”; in data set [7] it was 28%; in data set [10], 2.28%. The result in [5] and in [9] was Active. Moreover, the viability at 10 µM in [6] is 70.8%. The half-life in data set [8] was 1.15 h.

Values taken from ChEMBL document CHEMBL5316313, “Discovery of Novel 3-Phenylpiperidine Derivatives Targeting the β-Catenin/B-Cell Lymphoma 9 Interaction as a Single Agent and in Combination with the Anti-PD-1 Antibody for the Treatment of Colorectal Cancer” (J Med Chem, 2023).
